Laboratory results published in US6737383B1, “Herbicidal oxadiazolidines” (priority 1999, dated 2004).

What was measured:
sourgrass = experiment: Test D sourgrass; type: in vivo, Trichachne insularis; settings: Preemergence, 0 to 100 scale
Excerpt: Seeds, tubers, or plant parts of Alexandergrass (Brachiaria plantaginea), bermuda-grass (Cynodon dactylon), common pursiane (Portulaca oleracea), common ragweed (Ambrosia elatior), common groundsel (Senecio vulgaris), dallisgrass (Paspalum dilatatum), goosegrass (Eleusine indica), guineagrass (Panicum maximum), itchgrass (Rottboellia exaltata), Johnson grass (Sorghum halepense), large crabgrass (Digitaria sanguinalis), pitted morningglory (Ipomoea lacunosa), purple nutsedge (Cyperus rotundus), sandbur (Cenchrus echinatus), sourgrass (Trichachne insularis), Spanishneedles (Bidens bipinnata), surinam grass (Brachiaria decumbens) and tall mallow (Malva sylvestris) were planted into greenhouse pots of flats containing greenhouse planting medium. Plant species were grown in separate pots or individual compartments. Preemergence applications were made within one day of planting the seed or plant part.
Test chemicals were formulated in a non-phytotoxic solvent mixture which included a surfactant and applied preemergence to the surface of the pot containing seeds in a sandy loam soil. Untreated control pots and treated pots were placed in the greenhouse for growth and visually evaluated for injury 14 to 21 days after herbicide application. Plant response ratings, summarized in Table C, are based on a 0 to 100 scale where 0 is no injury and 100 is complete control. A dash (−) response means no test result.

giant foxtail = experiment: Test C postemergence giant foxtail; type: in vivo, Setaria faberii; settings: 0 to 100 scale, 0 no effect, 100 complete control
Protocol: (§1) Compounds evaluated in this test were formulated in a non-phytotoxic solvent mixture which included a surfactant and applied to plants that were grown for various periods of time before treatment (postemergence application). A mixture of sandy loam soil and greenhouse potting mix in a 60:40 ratio was used for the postemergence test.
(§2) Plantings of these crops and weed species were adjusted to produce plants of appropriate size for the postemergence test. All plant species were grown using normal greenhouse practices. Crop and weed species include arrowleaf sida (Sida rhombifolia), barnyardgrass (Echinochloa crus-galli), cocklebur (Xanthium strumarium), common ragweed (Ambrosia elatior), corn (Zea mays), cotton (Gossypium hirsutum), eastern black nightshade (Solanum ptycanthum), fall panicum (Panicum dichotomiflorum), field bindweed (Convolvulus arvensis), giant foxtail (Setaria faberii), hairy beggarticks (Bidens pilosa), ivyleaf morningglory (Ipomoea hederacea), johnsongrass (Sorghum halepense), ladysthumb smartweed (Polygonum persicaria), lambsquarters (Chenopodium album), large crabgrass (Digitaria sanguinalis), purple nutsedge (Cyperus rotundus), redroot pigweed (Amaranthus retroflexus), soybean (Glycine max), surinam grass (Brachiaria decumbens), velvetleaf (Abutilon theophrasti) and wild poinsettia (Euphorbia heterophylla).
(§3) Treated plants and untreated controls were maintained in a greenhouse for approximately 14, to 21 days, after which all treated plants were compared to untreated controls and visually evaluated. Plant response ratings, summarized in Table C, were based upon a 0 to 100 scale where 0 was no effect and 100 was complete control. A dash response (−) means no test result.

certain weeds = experiment: Test F overall statement on synergism with rimsulfuron (Colby's equation); type: in vivo; settings: combinations with rimsulfuron, preemergence
Protocol: Abutilon theophrasti (ABUTH), Chenopodium album (CHEAL), Amaranthus rudis (AMATA), Setaria […]), Panicum dichotomiflorum (PANDI), and Digitaria sanguinalis (DIGSA) were grown from seed in pots of an artificial potting mixture in a greenhouse. Compounds of the present invention were applied at 70 and 105 g ai/ha preemergence. Rimsulfuron was applied at 8.8 and 17.5 g ai/ha. Mixtures of the compounds of the present invention and rimsulfuron were also applied. Following application, the plants were maintained by watering as needed. A fertilizer solution of Peter's 20-20-20 (10 pounds/5 gallons of water) plus Sprint 330, a Iron Chelate micronutrient, (113.5 grams/5 gallons of water) was injected into the water with an Anderson fertilizer injection system to provide approximately 219 ppm of nitrogen with each watering. Artificial lighting was used to supplement natural light to produce a 14 hour photoperiod and: an additional one hour light period was used between 1:00 am to 2:00 am for a night interruption. Greenhouse temperatures were targeted for 27° C. in the day and 21° C. at night. At 21 days after treatment, all plants were evaluated for injury as compared to control plants that were sprayed only with non-phytotoxic solvent. […] Colby's equation was used to calculate the expected additive herbicidal effect of the mixtures of Compound 21 and the mixture partners listed above. […]

[1] = tested on: Chenopodium album (CHEAL); experiment: Test F preemergence, alone and in mixture with rimsulfuron, CHEAL; type: in vivo; settings: 21 days after treatment, 0-100 scale
Protocol: Abutilon theophrasti (ABUTH), Chenopodium album (CHEAL), Amaranthus rudis (AMATA), Setaria faberii (SETFA), Panicum dichotomiflorum (PANDI), and Digitaria sanguinalis (DIGSA) were grown from seed in pots of an artificial potting mixture in a greenhouse. Compounds of the present invention were applied at 70 and 105 g ai/ha preemergence. Rimsulfuron was applied at 8.8 and 17.5 g ai/ha. Mixtures of the compounds of the present invention and rimsulfuron were also applied.
Following application, the plants were maintained by watering as needed. A fertilizer solution of Peter's 20-20-20 (10 pounds/5 gallons of water) plus Sprint 330, a Iron Chelate micronutrient, (113.5 grams/5 gallons of water) was injected into the water with an Anderson fertilizer injection system to provide approximately 219 ppm of nitrogen with each watering. Artificial lighting was used to supplement natural light to produce a 14 hour photoperiod and: an additional one hour light period was used between 1:00 am to 2:00 am for a night interruption. Greenhouse temperatures were targeted for 27° C. in the day and 21° C. at night. At 21 days after treatment, all plants were evaluated for injury as compared to control plants that were sprayed only with non-phytotoxic solvent.
Colby's equation was used to calculate the expected additive herbicidal effect of the mixtures of Compound 21 and the mixture partners listed above. […]

wild poinsettia = experiment: Test C postemergence wild poinsettia; type: in vivo, Euphorbia heterophylla; settings: 0 to 100 scale, 0 no effect, 100 complete control
Protocol: as §1, §2, §3

[2] = tested on: Abutilon theophrasti (ABUTH); experiment: Test F preemergence, alone and in mixture with rimsulfuron, ABUTH; type: in vivo; settings: 21 days after treatment, 0-100 scale
In short: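 Greenhouse pot plants treated preemergence with compound at 70 and 105 g ai/ha, rimsulfuron at 8.8 and 17.5 g ai/ha, or mixtures; 27° C day/21° C night, 14 hour photoperiod. Injury scored at 21 days after treatment against solvent-sprayed controls; expected additive effect of mixtures calculated by Colby's equation.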

[3] = Rate 64 g/ha, 0 no injury, 100 complete control
[4] = Alone: Cmpd. rate 70, Rimsulfuron 0
[5] = Alone: Cmpd. rate 105, Rimsulfuron 0

SMILES | Plant response rating, Sourgrass (sourgrass; Rate 32 g/ha, 0 no injury, 100 complete control) | Plant response rating, Sourgrass (sourgrass; [3]) | Sourgrass plant response rating (sourgrass; [3]) | Sourgrass plant response rating (sourgrass; Rate 125 g/ha, 0 no injury, 100 complete control) | Plant response rating, Sourgrass (sourgrass; Rate 250 g/ha) | Plant response rating, Sourgrass (sourgrass; Rate 500 g/ha) | Plant response rating, Giant foxtail (giant foxtail; Rate 140 g/ha) | Plant response rating, Giant foxtail (giant foxtail; Rate 280 g/ha) | Plant response rating, Giant foxtail (giant foxtail; Rate 560 g/ha) | Plant response rating, Giant foxtail (giant foxtail; Rate 1120 g/ha) | Weed control of combination with rimsulfuron compared with expectation from Colby's equation (certain weeds) | CHEAL Observed [1, 4] [%] | CHEAL Observed [1, 5] [%] | Plant response rating Wild poinsettia (wild poinsettia; Rate 140 g/ha) | Plant response rating Wild poinsettia (wild poinsettia; Rate 280 g/ha) | Plant response rating Wild poinsettia (wild poinsettia; Rate 560 g/ha) | Plant response rating Wild poinsettia (wild poinsettia; Rate 1120 g/ha) | ABUTH Observed [2, 4] [%] | ABUTH Observed [2, 5] [%]
Cc1ccc(-n2c(=O)on(C(=O)N(c3ccc(F)cc3F)C(C)C)c2=O)c(C)c1 [Compound 24] | 40 | 85 | 100 | 100 | 100 | 100 |  |  |  |  |  |  |  |  |  |  |  |  | 
CC(C)N(C(=O)n1oc(=O)n(C(C)C)c1=O)c1ccccc1 [Compound 113] |  |  |  |  |  |  | 20 | 70 | 80 | 80 | better control of certain weeds than expected | 15 | 35 | 10 | 50 | 80 | 95 | 45 | 65
